Results reported in article PMC8583782, “Screening for the Active Anti-Inflammatory and Antioxidant Polyphenols of Gaultheria procumbens and Their Application for Standardisation: From Identification through Cellular Studies to Quantitative Determination” (International Journal of Molecular Sciences, 2021).
Like-named read-outs stand apart in the source and are kept apart here.

Biological target: T1, HYAL (bovine testis hyaluronidase) (Bos taurus, UniProt Q2YDK3)
T1 construct: gene SPAM1; commercial native preparation from bovine testis (Merck)
T1 sequence (Q2YDK3 36-553): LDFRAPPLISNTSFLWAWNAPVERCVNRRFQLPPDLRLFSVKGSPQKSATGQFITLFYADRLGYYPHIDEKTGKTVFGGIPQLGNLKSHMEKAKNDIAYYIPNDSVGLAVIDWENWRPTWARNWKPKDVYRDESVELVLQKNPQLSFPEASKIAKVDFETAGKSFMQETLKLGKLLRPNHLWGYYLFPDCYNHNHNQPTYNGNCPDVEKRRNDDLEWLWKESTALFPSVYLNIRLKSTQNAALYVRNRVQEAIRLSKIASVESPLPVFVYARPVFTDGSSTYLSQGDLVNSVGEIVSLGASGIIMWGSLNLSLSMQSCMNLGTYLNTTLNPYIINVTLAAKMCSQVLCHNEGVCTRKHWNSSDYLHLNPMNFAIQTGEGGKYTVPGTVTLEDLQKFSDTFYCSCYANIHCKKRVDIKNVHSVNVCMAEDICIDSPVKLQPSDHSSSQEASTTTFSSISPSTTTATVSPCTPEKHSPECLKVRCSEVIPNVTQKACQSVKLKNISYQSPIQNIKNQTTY
Assay: hyaluronidase inhibition assay
Type: biochemical
Details: read-out: Anti-Inflammatory Activity / HYAL / IC50 (μM) ^a
Source text: hyaluronidase inhibition assay on HYAL (bovine testis hyaluronidase)

| SMILES | IC50 (tested at […]) | IC50 (positive control) |
| --- | --- | --- |
| Oc1cc(O)c2c(c1)O[C@H](c1ccc(O)c(O)c1)[C@H](O)C2 [ECA, (−)-epicatechin] | 81.9 ± 3.96 µM |  |
| C[C@@H]1C[C@H]2[C@@H]3CCC4=CC(=O)C=C[C@]4(C)[C@@]3(F)[C@@H](O)C[C@]2(C)[C@@]1(O)C(=O)CO [DEX, dexamethasone, reference compound] |  | 36.1 ± 2.68 µM |
| O=C(/C=C/c1ccc(O)c(O)c1)O[C@@H]1C[C@](O)(C(=O)O)C[C@@H](O)[C@H]1O [CHA, 5-O-caffeoylquinic acid] | 80.7 ± 3.42 µM |  |
| O=c1c(O)c(-c2ccc(O)c(O)c2)oc2cc(O)cc(O)c12 [QU, quercetin] | 102 ± 6.09 µM |  |
| O=C(O)[C@H]1O[C@@H](Oc2c(-c3ccc(O)c(O)c3)oc3cc(O)cc(O)c3c2=O)[C@H](O[C@@H]2OC[C@@H](O)[C@H](O)[C@H]2O)[C@@H](O)[C@@H]1O [DGQ, quercetin 3-O-β-D-xylopyranosyl-(1→2)-β-D-glucuronopyranoside] | 98.1 ± 2.31 µM |  |
| Oc1cc(O)c2c(c1)O[C@H](c1ccc(O)c(O)c1)[C@H](O)[C@H]2c1c(O)cc(O)c2c1O[C@H](c1ccc(O)c(O)c1)[C@H](O)C2 [PB2, epicatechin-(4β→8)-epicatechin] | 37.4 ± 1.78 µM |  |
| O=C(O)[C@H]1O[C@@H](Oc2c(-c3ccc(O)c(O)c3)oc3cc(O)cc(O)c3c2=O)[C@H](O)[C@@H](O)[C@@H]1O [MQ, quercetin 3-O-β-D-glucuronopyranoside] | 98.2 ± 4.41 µM |  |
| COc1ccc2c(c1)c(CC(=O)O)c(C)n2C(=O)c1ccc(Cl)cc1 [IND, indomethacin, reference compound] |  | 35.7 ± 5.34 µM |
| COC(=O)c1ccccc1O[C@@H]1O[C@H](CO[C@@H]2OC[C@@H](O)[C@H](O)[C@H]2O)[C@@H](O)[C@H](O)[C@H]1O [GT, methyl salicylate 2-O-β-D-xylopyranosyl-(1→6)-β-D-glucuronopyranoside] | 64 ± 2.87 µM |  |
